Assays:
[1] = test system: Stop-POST5 / Stop-PRE6 complex; experiment: High throughput translocation assay (proflavin fluorescence, plate reader); assay type: biochemical; details: FIG. 17B
From the text: FIGS. 17A, 17B, 17C, and 17D are graphs showing data from the high throughput translocation assay. FIG. 17A is a graph showing a stable prf-fluorescence increase at different G418 concentrations [G418] due to eEF2-dependent conversion of a Stop-PRE6 complex to a Stop-POST6 complex, resulting from the increase in quantum yield of Trp-tRNA(prf). FIG. 17B is a graph showing fluorescence results in FIG. 17A as a function of [G418]. FIG. 17C is a graph showing the kinetics of Stop-PRE6 translocation, measured at 1 μM eEF2 and 2 μM G418. FIG. 17D is a graph showing the kinetics of Trp-PRE6 translocation to Trp-POST6 measured at 0.05 μM of eEF2 in the absence of G418.
Different proflavin-labeled aa-tRNAs, denoted aa-tRNA(prf)s, were used to monitor the elongation cycle changes by fluorescence change at 511 nm following excitation at 458 nm (Ng et al. PNAS, 118(2) e2020599118, 1-10 (2021)). Binding of Trp-TC(prf) to a Trp-POST5 complex in the presence of eEF2 lead to a biphasic increase, with the first, more rapid phase corresponding to formation of Trp-PRE6, followed by a slower, eEF2-dependent phase corresponding to conversion of Trp-PRE6 into Trp-POST6. The translocation step was monitored using a plate-reader assay for both G418-stimulated readthrough of Stop-POST5 (FIGS. 17A-17C) and cognate elongation of Trp-POST5 (FIG. 17D) by adjustment of [eEF2].

[2] = molecular target: T1, eRF1 (Saccharomyces cerevisiae, UniProt P12385); experiment: [3H]-AzAt photoaffinity labeling of isolated eRF1; assay type: binding; details: FIG. 2E
T1 construct: made in house; host or cells: E. coli BL21(DE3) CodonPlus
T1 sequence (P12385 whole entry): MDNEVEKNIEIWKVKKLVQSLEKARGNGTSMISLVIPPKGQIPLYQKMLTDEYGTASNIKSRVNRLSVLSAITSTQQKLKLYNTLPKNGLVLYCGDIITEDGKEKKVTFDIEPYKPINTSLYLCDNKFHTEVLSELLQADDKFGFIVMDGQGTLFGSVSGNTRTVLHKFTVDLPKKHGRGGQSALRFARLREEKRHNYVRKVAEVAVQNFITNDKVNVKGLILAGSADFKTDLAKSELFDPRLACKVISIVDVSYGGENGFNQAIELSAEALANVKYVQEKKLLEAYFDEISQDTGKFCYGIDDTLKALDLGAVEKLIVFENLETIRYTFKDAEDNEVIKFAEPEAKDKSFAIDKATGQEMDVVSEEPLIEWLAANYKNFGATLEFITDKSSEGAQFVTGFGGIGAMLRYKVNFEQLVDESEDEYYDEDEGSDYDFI
Protocol: (§1) Photoaffinity labeling with [^3H]-AzAt. Samples in Buffer 4, typically 20 μL, were incubated in the dark (20 min for Stop-POST5 and 80S-IRES complexes, 2 min for release factors) with various concentrations of [^3H]-AzAt at 37° C., transferred to a UV-transparent cuvette which was covered with parafilm to prevent evaporation, and irradiated in a Rayonet photochemical reactor equipped with 300 nm UV lamps for 5 min at room temperature. This was followed by quenching with 2 mM DTT at 37° C. for 5 min under ambient light. The irradiation time gave complete photolysis of the phenyl azide moiety in AzAt. Photolysis was also complete at 5 min in the presence of 1 mM ataluren, ruling out internal filtering effects.
(§2) Photoaffinity labeling of release factors. Solutions containing eRF1 (10 μM), eRF3 (20 μM) and 1 mM GMPPMP were pre-incubated at 37° C. for 2 min to form the ternary complex prior to photolabeling with [^3H]-AzAt. After quenching, reaction mixtures were loaded onto a 4-15% mini protean SDS-PAGE gel for protein separation and isolation. Gel slices containing eRF1 or eRF3, as shown by Coomassie Blue R250 staining, were crushed and the radioactivity was extracted in extraction buffer (50 mM Tris-HCl, 150 mM NaCl, and 0.1 mM EDTA; pH 7.5) by vigorously shaking at 70° C. for 30 min. The data fitting was performed using the software Prism. Labeling results of eRF1 alone and within the eRF1.eRF3.GDPNP complex were fit with a one-site binding model and a two-site binding model, respectively.

[3] = molecular target: T2, eRF1.eRF3.GDPNP ternary complex (Saccharomyces cerevisiae, UniProt P12385); experiment: [3H]-AzAt photoaffinity labeling of eRF1 within ternary complex; assay type: binding; details: compared with isolated eRF1, FIG. 2E
T2 construct: made in house; host or cells: E. coli BL21(DE3) CodonPlus
T2 sequence (P05453 166-685): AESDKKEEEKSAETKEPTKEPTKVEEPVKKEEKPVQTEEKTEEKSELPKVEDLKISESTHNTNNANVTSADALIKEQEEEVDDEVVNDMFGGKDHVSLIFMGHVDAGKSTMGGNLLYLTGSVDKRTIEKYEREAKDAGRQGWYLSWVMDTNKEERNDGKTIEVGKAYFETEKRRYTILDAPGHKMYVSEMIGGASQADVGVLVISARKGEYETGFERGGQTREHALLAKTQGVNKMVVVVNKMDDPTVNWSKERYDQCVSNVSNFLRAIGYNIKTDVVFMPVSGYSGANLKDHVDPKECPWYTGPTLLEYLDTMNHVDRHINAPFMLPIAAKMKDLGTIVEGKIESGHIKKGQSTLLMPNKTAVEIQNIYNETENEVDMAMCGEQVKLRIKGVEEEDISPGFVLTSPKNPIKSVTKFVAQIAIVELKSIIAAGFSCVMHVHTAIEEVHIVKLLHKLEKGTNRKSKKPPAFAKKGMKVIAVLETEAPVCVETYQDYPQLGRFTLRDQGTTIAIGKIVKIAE
T2 sequence (P12385 whole entry): as the sequence (P12385 whole entry) above
Protocol: as §1, §2

[4] = test system: Small RNAs within Stop-POST5 complex; experiment: AzAt photoincorporation into small RNAs (urea-PAGE, RNAse H fragments); assay type: binding, shrimp (Artemia salina)
Protocol: FIG. 11 illustrates 8% Urea-PAGE resolution of small RNAs.
as §1
Stop-POST5 and 80S-IRES complexes. 1 μM solutions of either Stop-POST5 or 80S-S.IRES, determined by A260, were photolabeled by [^3H]-AzAt. The sample was then either directly purified by ultracentrifugation through a sucrose cushion to determine the photoincorporation stoichiometry in the complex, or subjected to phenol/chloroform extraction to determine the photoincorporation stoichiometry in the total RNA. To determine the photoincorporation background arising from incomplete removal of noncovalently bound photolyzed AzAt, AzAt was prephotolysed for 5 min before adding to the complex, followed by the 20 min incubation in dark at 37° C. and subsequent sucrose cushion purification or RNA extraction as described above.
(§3) RNaseH Fragment Assay. Total RNA was prepared from the ^3H-AzAt photoaffinity labeled ribosome by phenol-chloroform extraction. RNA: DNA duplexes were formed by incubating total RNA (0.2 μM) with an oligonucleotide pair (1 μM of each, sequences shown Table 1), flanking a specific RNA region, in 22.8 μL of water at 95° C. for 2 min, followed by annealing at 50° C. for 30 s and quenching on ice. Six units (1.2 μL) of RNase H (NEB) and 6 μl of 5×RNase H Reaction Buffer were next added to the RNA: DNA duplex and incubated at 37° C. for 1 hour, followed by phenol-chloroform extraction of RNA. The digested RNA was separated on 12% TBE-Urea PAGE gel, and the target band along with the adjacent upper and bottom gels were sliced by a 2 mm gel cutter. The gel slices were crushed and the ^3H labeled rRNA fragment was extracted in water by vigorously shaking at 70° C. for 30 min, or by overnight extraction in elution buffer (0.3M sodium acetate, 0.25% SDS, 1 mM EDTA). The slurry was removed by centrifugation and the eluted ^3H labeled rRNA in the supernatant was quantified. The stoichiometry of AzAt photoincorporation was calculated based on a gel recovery yield of 20±2%, determined using an authentic sample of [^3H]-Gln-tRNA^Gln.
Small RNAs. AzAt photoincorporation into the 4 small RNAs (CrPV-IRES, 5.8S rRNA, 5S rRNA, and tRNA) contained within POST5 was examined by one-dimensional (1D) urea-PAGE analysis, by RNA-Seq, and by RNAse H fragment assay (FIG. 11).

[5] = test system: rRNA fragments I-IV of Stop-POST5; experiment: RNaseH fragment assay, Stop-POST5; assay type: binding, shrimp (Artemia salina)
Protocol: as §3
Testing the functional pertinence of AzAt photolabeling of 18S A1195, 28S-A3093, 28S-A2672, and 28S-2669. An RNAse H fragment assay was employed to determine whether the potential functionally significant sites identified by LASER-seq correspond to ataluren binding sites relevant for termination activity. In this assay, oligonucleotide hybridization, RNase H digestion and polyacrylamide gel electrophoresis (PAGE) were used to determine the stoichiometry of [^3H]-AzAt photoincorporation into the three rRNA fragments that together include the four nucleotides of interest: Fragment I, 18S-A1195; Fragment II, 26S-A3093; Fragment III, 26S-A2669 and 26S-A2672 (Table 5). The separate addition of four potential competitors of AzAt binding (eRF1 alone, the stably bound eRF1.eRF3.GDPNP complex, ataluren, and the ataluren-like TRID GJ072) was used to test how these affected such photoincorporation. These experiments, the results of which are summarized in Table 5, were performed at two different AzAt concentrations. eRF1 and eRF1.eRF3.GDPNP effects were measured using 300 μM AzAt, paralleling the LASER-Seq PAL experiments.

[6] = Solubility in aqueous medium; assay type: physicochemical
[7] = PAL, 30 μM AzAt, alone or plus competing ligand named as label
[8] = Stop-POST5, PAL, 30 μM AzAt, alone or plus Ataluren 500 μM / GJ072 150 μM named as label

## CN[C@@H]1[C@@H](O)[C@@H](O[C@@H]2[C@@H](O)[C@H](O[C@H]3O[C@H]([C@@H](C)O)[C@@H](O)[C@H](O)[C@H]3N)[C@@H](N)C[C@H]2N)OC[C@]1(C)O [G418]
[1]
  EC50 value, G418-stimulated readthrough translocation: fully consistent with previous determination

## COc1cccc(-n2c(SCC(=O)Nc3ccc(F)cc3)nnc2-c2ccccn2)c1 [GJ072]
[2]
  effect on AzAt photoincorporation into isolated eRF1: substantially inhibited
[3]
  inhibition of AzAt photoincorporation into eRF1 within the ternary complex: less marked
[4]; PAL, 30 μM AzAt, alone (AzAt) or plus competing ligand named as label (Ataluren 500 μM, GJ072 150 μM)
  Photoincorporation yields into CrPV-IRES nts1-155: 0.51 ± 0.03 mole %
[4]; [7]
  Photoincorporation yields into 5S rRNA: 0.15 ± 0.01 mole %
  Photoincorporation yields into 5.8S rRNA: 0.19 ± 0.07 mole %
  Photoincorporation yields into CrPV-IRES All: 0.59 ± 0.14 mole %
  Photoincorporation yields into CrPV-IRES nts156-221: 0.22 ± 0.05 mole %
  Photoincorporation yields into CrPV-IRES nts222-278: 0.09 ± 0.05 mole %
  Photoincorporation yields into tRNA^Gln: 0.25 ± 0.03 mole %
[4]; RNAse H fragment assay
  effect on AzAt labeling of CrPV-IRES fragments 1-155 and 156-221: no clearly significant changes
[4]; none clearly significant
  effect on AzAt labeling of small RNAs: generally small reductions
[5]
  effect on AzAt photoincorporation into Fragment IV (26S A1437/A1438): neither ataluren nor GJ072 reduce labeling at all
[5]; Stop-POST5
  effect on AzAt photoincorporation into Fragment I (18S-A1195): strongly inhibited
  effect on AzAt photoincorporation into Fragment II (A3093): stimulated
  effect on AzAt photoincorporation into Fragment III (A2669/A2672): only weakly inhibited
[5]; [8]
  Photoincorporation yields into 18S A1195/ I: 18S 1151-1206: 0.10 ± 0.01 mole %
  Photoincorporation yields into 26S-A2669:A2672/ III: 26S 2638-2702: 0.07 ± 0.01 mole %
  Photoincorporation yields into 26S-A3093/ II: 26S 3069-3113: 0.07 ± 0.01 mole %
  Photoincorporation yields into RNAse H Fragment IV: 26S 1413-1476: 0.019 ± 0.004%
[6]
  solubility in aqueous medium: limited solubility
